According to patent publication US10800741B2 (ANCUREALL PHARMACEUTICAL (SHANGHAI) CO., LTD., priority 2017, dated 2020):
Like-named read-outs stand apart in the source and are kept apart here.

Key:
[1] = tested on: NCI-H1581; experiment: NCI-H1581 subcutaneous transplantation tumor model, tumor growth inhibition in vivo; parameters: species or system Bab/c immunodeficient mice; conditions: 17th day after the administration
Source text: (§1) Test Example 7 Inhibition of Tumour Cell Growth In Vivo
(§2) In order to establish subcutaneous transplantation tumor models of human non-small cell lung cancer and endometrial adenocarcinoma, Bab/c immunodeficient mice were subcutaneously inoculated with NCI-H1581 (ATCC) and AN3-CA (ATCC) cells, respectively.
(§3) Experimental animals: 6-week female Bab/c immunodeficient mice (about 20 g in weight). The mice were purchased from Shanghai Sippr-BK Experimental Animal Co., Ltd., raised in Animal Center of Shanghai University of Traditional Chinese Medicine, approved by Ethical Committee of Shanghai University of Traditional Chinese Medicine. The breeding environment was SPF grade.
Test samples: the present compounds 66 (purity: 99%), solid powder, stored at 4˜8° C.
Cells and animal models: NCI-H1581 cells were cultured in RPMI 1640 medium containing 10% fetal bovine serum. Log-phase NCI-H1581 cells were collected and re-suspended with PBS to 2.5×10^7 cells per ml for subcutaneous single-point inoculation of Bab/c immunodeficient mice at the right side of the back of mouse (5×10^6 cells, 0.2 ml).
When the tumor volume reached 100˜200 mm^3, the mice were randomly divided according to tumor size. The experiment was divided into solvent control group and drug administration group (compound 66 group). 6 mice in each group were administered 0.1 ml per 10 g body weight by intraperitoneal injection (i.p) once a day. The tumor was measured three times a week, and the tumor volume was calculated as: long diameter×short diameter^2/2. When the average tumor volume of the control group reached 2000 mm^3, the experiment was over and then the tumor was weighed and subjected to molecular pathology assay. Efficacy was assessed based on relative tumor growth inhibition value (TGI), and safety was assessed based on animal weight change.
Preparation of test samples: appropriate amount of compound 66 was weighed and mixed with ultrapure water; and methanesulfonic acid was added for clarification; and then 4M NaOH was added to adjust the PH to 3.8; and a final volume was made up with ultrapure water. The final concentrations were 0.5 mg/ml and 0.25 mg/ml, respectively.
T/C % refers to the relative tumor growth rate, that is, the percentage of relative tumor volume or tumor weight of the administration group and the control group at a certain time point. […]
(§4) Tumor volume data of 17 days after the start of administration were selected for statistical analysis among different groups, and independent sample T test was used to compare whether there were significant differences in relative tumor volume between the administration group and the control group. All data were analyzed using SPSS 18.0. […]

[2] = tested on: AN3-CA; experiment: AN3-CA subcutaneous transplantation tumor model, tumor growth inhibition in vivo; parameters: species or system Bab/c immunodeficient mice; conditions: 5 mg/kg i.p once a day, 17th day after the administration
Source text: as §1, §2
as §3, with “grade. […]” for “grade.”
When the tumor volume reached 100˜200 mm^3, the mice were randomly divided according to tumor size. […] The tumor was measured three times a week, and the tumor volume was calculated as: long diameter×short diameter^2/2. […] Efficacy was assessed based on relative tumor growth inhibition value (TGI), and safety was assessed based on animal weight change. […]
as §4

[3] = target: T1, protein kinases (Homo sapiens, UniProt P00519, F317I); experiment: KINOMEscan in vitro binding to 468 labeled protein kinases; conditions: read-out: Test compound/solvent control (%); for remaining binding at 0.001 µM: 1 nM; for remaining binding at 0.01 µM: 10 nM; for remaining binding at 1 µM: 1000 nM
T1 construct: purchased Discovery X company (USA), KINOMEscan screening platform
Experimental: (§5) Test Example 6 Determination of Binding Affinity of the Present Compounds on Protein Kinases In Vitro
(§6) KINOMEscan screening platform of Discovery X company (USA) was used to identify the binding targets of the present compounds to protein kinases. Compound 66 of the present invention was dissolved in DMSO (Sigma Aldrich) at concentrations of 1000 nM, 10 nM and 1 nM, and then was subjected to in vitro binding reaction with 468 labeled protein kinases. Two samples were taken in parallel for each assay sample.
(§7) The lower the percentage of the test compound to the solvent control, the stronger the binding affinity of the test compound to the protein kinase in vitro.

[4] = target: T2, protein kinases (Homo sapiens, UniProt P35590); experiment: as above; conditions: TIE1, read-out: Test compound/solvent control (%)
T2 construct: purchased Discovery X company (USA), KINOMEscan screening platform
T2 sequence (P35590 22-1138): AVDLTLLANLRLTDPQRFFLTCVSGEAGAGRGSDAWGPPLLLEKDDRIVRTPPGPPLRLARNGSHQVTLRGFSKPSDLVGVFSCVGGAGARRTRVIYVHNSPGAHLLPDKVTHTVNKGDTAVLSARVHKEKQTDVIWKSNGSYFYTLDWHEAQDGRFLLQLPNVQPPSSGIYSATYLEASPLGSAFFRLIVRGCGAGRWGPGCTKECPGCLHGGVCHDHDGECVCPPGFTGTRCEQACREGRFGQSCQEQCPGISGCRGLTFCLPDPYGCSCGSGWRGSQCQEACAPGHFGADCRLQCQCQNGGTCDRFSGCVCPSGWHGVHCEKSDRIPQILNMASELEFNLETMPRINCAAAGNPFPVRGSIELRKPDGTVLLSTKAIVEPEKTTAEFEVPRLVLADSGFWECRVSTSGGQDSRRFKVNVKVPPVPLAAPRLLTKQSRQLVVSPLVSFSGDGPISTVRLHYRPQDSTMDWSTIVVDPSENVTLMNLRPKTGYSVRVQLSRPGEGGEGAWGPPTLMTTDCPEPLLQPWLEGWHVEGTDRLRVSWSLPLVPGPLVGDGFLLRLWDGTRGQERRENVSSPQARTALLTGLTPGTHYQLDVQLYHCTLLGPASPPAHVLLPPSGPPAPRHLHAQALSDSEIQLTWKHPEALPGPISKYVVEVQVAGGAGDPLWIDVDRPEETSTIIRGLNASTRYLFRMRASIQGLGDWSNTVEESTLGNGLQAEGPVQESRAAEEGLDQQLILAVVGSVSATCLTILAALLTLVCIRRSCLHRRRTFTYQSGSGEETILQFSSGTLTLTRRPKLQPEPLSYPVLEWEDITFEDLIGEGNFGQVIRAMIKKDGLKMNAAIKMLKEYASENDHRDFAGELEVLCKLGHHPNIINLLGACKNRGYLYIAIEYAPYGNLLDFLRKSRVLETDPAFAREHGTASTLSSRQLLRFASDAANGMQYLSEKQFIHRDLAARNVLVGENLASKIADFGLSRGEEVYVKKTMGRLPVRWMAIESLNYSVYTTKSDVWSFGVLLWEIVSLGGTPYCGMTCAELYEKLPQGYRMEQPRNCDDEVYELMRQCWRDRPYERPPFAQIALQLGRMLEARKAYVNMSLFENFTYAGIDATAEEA
Experimental: as §5, §6, §7

[5] = target: T3, protein kinases (Homo sapiens, UniProt P00519, Q252H); experiment: as above; conditions: read-out: Test compound/solvent control (%); for remaining binding at 0.001 µM: 1 nM; for remaining binding at 0.01 µM: 10 nM; for remaining binding at 1 µM: 1000 nM
T3 construct: purchased Discovery X company (USA), KINOMEscan screening platform
Experimental: as §5, §6, §7

[6] = target: T4, protein kinases (Homo sapiens, UniProt P09619); experiment: as above; conditions: PDGFRB, read-out: Test compound/solvent control (%)
T4 construct: purchased Discovery X company (USA), KINOMEscan screening platform
Experimental: as §5, §6, §7

[7] = target: T5, protein kinases (Homo sapiens, UniProt P11362); experiment: as above; conditions: FGFR1, read-out: Test compound/solvent control (%)
T5 construct: purchased Discovery X company (USA), KINOMEscan screening platform
T5 sequence (P11362 22-822): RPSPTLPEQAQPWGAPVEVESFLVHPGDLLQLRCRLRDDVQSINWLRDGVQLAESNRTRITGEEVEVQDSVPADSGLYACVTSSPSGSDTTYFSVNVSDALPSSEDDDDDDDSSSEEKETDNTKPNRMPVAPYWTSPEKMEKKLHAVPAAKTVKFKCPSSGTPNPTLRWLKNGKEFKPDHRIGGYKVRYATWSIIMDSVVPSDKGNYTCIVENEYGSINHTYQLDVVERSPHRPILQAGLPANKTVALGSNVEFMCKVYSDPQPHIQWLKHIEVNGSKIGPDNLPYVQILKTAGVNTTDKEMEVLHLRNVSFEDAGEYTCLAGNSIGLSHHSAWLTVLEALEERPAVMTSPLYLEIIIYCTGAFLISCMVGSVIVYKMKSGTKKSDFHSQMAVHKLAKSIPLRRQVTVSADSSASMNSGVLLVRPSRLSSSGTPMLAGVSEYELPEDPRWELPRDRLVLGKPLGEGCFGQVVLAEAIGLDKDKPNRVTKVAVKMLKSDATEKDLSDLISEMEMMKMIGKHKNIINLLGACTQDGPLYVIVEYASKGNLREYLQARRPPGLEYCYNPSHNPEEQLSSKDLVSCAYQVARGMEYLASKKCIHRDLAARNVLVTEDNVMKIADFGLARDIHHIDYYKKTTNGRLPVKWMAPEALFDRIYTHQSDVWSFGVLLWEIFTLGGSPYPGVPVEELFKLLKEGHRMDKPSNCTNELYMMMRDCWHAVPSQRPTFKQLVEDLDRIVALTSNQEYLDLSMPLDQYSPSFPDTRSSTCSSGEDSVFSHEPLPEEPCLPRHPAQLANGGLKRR
Experimental: as §5, §6, §7

[8] = target: T6, protein kinases (Homo sapiens, UniProt P21802); experiment: as above; conditions: FGFR2, read-out: Test compound/solvent control (%)
T6 construct: purchased Discovery X company (USA), KINOMEscan screening platform
Experimental: as §5, §6, §7

[9] = target: T7, protein kinases (Homo sapiens, UniProt Q02763); experiment: as above; conditions: TIE2, read-out: Test compound/solvent control (%)
T7 construct: purchased Discovery X company (USA), KINOMEscan screening platform
T7 sequence (Q02763 23-1124): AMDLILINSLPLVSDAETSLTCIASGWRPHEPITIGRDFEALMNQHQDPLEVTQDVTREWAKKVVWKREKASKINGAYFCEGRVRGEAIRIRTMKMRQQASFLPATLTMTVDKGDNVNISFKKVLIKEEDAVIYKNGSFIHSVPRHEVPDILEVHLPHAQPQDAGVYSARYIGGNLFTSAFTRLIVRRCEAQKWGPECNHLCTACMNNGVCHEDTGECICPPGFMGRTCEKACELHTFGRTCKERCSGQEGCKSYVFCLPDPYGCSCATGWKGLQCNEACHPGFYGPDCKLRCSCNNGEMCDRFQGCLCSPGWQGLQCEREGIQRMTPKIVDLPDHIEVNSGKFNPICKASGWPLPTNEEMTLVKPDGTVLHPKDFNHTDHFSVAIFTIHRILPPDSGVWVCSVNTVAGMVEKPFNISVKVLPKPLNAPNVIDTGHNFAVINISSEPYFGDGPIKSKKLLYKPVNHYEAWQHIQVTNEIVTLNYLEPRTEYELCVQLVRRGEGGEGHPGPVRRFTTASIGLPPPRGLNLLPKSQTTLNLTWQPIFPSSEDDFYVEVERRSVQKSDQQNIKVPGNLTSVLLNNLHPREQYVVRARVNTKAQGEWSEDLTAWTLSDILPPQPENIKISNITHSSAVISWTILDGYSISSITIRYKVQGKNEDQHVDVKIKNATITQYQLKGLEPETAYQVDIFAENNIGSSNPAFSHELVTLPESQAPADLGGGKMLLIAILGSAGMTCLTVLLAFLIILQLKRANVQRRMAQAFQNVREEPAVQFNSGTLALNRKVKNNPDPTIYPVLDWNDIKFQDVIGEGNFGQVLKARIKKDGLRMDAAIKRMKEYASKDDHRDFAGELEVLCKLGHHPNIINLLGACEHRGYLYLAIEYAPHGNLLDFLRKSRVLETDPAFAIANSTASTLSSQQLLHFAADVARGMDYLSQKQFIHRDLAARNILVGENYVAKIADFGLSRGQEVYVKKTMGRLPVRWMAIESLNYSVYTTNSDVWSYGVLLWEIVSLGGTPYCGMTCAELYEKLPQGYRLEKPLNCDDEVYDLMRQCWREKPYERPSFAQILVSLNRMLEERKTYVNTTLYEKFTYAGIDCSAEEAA
Experimental: as §5, §6, §7

[10] = target: T8, protein kinases (Homo sapiens, UniProt P16234); experiment: as above; conditions: PDGFRA, read-out: Test compound/solvent control (%)
T8 construct: purchased Discovery X company (USA), KINOMEscan screening platform
T8 sequence (P16234 24-1089): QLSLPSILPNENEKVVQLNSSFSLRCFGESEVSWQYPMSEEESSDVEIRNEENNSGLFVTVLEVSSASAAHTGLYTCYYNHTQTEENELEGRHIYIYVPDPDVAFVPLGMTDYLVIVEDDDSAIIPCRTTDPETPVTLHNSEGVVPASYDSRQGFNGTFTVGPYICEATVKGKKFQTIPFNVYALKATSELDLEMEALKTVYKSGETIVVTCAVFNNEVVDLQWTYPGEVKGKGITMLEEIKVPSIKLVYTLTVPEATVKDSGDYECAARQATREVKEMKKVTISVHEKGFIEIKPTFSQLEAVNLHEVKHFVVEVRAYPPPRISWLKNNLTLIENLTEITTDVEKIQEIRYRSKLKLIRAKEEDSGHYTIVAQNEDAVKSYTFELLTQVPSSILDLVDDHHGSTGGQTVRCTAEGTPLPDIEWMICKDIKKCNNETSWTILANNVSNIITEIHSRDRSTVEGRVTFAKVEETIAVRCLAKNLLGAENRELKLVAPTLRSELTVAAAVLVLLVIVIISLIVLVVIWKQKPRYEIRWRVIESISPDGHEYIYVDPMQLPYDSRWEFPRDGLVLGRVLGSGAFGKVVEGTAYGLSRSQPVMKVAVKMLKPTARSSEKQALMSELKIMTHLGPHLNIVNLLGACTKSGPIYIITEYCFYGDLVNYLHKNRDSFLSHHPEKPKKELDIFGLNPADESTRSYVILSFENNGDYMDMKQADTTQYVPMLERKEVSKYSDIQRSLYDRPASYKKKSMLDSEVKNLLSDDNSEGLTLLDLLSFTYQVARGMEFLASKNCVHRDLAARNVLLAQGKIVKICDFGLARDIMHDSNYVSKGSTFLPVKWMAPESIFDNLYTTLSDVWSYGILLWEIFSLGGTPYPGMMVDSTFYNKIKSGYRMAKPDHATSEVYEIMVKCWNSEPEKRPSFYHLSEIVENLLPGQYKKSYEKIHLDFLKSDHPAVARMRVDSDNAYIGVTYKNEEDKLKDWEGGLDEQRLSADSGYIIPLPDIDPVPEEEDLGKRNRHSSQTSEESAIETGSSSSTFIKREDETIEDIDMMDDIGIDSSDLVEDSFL
Experimental: as §5, §6, §7

[11] = target: T9, protein kinases (Homo sapiens, UniProt P22455); experiment: as above; conditions: FGFR4, read-out: Test compound/solvent control (%)
T9 construct: purchased Discovery X company (USA), KINOMEscan screening platform
T9 sequence (P22455 22-802): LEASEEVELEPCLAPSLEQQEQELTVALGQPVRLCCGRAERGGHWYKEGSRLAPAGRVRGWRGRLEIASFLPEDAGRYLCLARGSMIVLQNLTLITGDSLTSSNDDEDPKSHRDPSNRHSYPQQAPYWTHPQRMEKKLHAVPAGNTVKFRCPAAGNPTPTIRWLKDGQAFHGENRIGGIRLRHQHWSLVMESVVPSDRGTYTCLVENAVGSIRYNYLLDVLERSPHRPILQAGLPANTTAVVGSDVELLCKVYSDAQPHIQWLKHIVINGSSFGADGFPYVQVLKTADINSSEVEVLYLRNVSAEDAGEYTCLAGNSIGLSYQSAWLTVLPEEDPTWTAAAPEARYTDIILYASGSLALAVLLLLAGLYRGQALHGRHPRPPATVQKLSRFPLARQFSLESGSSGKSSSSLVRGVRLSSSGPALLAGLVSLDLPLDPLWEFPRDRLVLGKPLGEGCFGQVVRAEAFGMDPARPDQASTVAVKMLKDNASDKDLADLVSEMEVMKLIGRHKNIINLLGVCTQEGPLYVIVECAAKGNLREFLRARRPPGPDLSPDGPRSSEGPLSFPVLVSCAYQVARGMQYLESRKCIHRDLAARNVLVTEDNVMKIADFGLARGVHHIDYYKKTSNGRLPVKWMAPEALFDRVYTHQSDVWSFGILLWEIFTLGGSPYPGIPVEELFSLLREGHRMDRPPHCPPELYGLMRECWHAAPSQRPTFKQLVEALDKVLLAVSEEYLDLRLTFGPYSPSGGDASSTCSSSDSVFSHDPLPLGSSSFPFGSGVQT
Experimental: as §5, §6, §7

- remaining binding at 0.001 µM ([3]; ABL1(F317I)-phosphorylated): 100%
- remaining binding at 0.01 µM ([3]; ABL1(F317I)-phosphorylated): 31%
- remaining binding at 1 µM ([3]; ABL1(F317I)-phosphorylated): 15%
- remaining binding at 0.001 µM ([3]; ABL1(F317I)-unphosphorylated): 83%
- remaining binding at 0.01 µM ([3]; ABL1(F317I)-unphosphorylated): 17%
- remaining binding at 1 µM ([3]; ABL1(F317I)-unphosphorylated): 0.25%
- remaining binding at 0.001 µM ([4]; 1 nM): 41%
- remaining binding at 0.01 µM ([4]; 10 nM): 21%
- remaining binding at 1 µM ([4]; 1000 nM): 2%
- remaining binding at 0.001 µM ([5]; ABL1(Q252H)-phosphorylated): 71%
- remaining binding at 0.01 µM ([5]; ABL1(Q252H)-phosphorylated): 12%
- remaining binding at 1 µM ([5]; ABL1(Q252H)-phosphorylated): 0.15%
- remaining binding at 0.001 µM ([5]; ABL1(Q252H)-unphosphorylated): 48%
- remaining binding at 0.01 µM ([5]; ABL1(Q252H)-unphosphorylated): 7.8%
- remaining binding at 1 µM ([5]; ABL1(Q252H)-unphosphorylated): 0%
- remaining binding at 0.001 µM ([6]; 1 nM): 81%
- remaining binding at 0.01 µM ([6]; 10 nM): 6.2%
- remaining binding at 1 µM ([6]; 1000 nM): 0%
- remaining binding at 0.001 µM ([7]; 1 nM): 56%
- remaining binding at 0.01 µM ([7]; 10 nM): 4.5%
- remaining binding at 1 µM ([7]; 1000 nM): 0.3%
- remaining binding at 0.001 µM ([8]; 1 nM): 93%
- remaining binding at 0.01 µM ([8]; 10 nM): 71%
- remaining binding at 1 µM ([8]; 1000 nM): 0.25%
- remaining binding at 0.001 µM ([9]; 1 nM): 59%
- remaining binding at 0.01 µM ([9]; 10 nM): 3.8%
- remaining binding at 1 µM ([9]; 1000 nM): 0.95%
- remaining binding at 0.001 µM ([10]; 1 nM): 88%
- remaining binding at 0.01 µM ([10]; 10 nM): 34%
- remaining binding at 1 µM ([10]; 1000 nM): 0.15%
- remaining binding at 0.001 µM ([11]; 1 nM): 93%
- remaining binding at 0.01 µM ([11]; 10 nM): 74%
- remaining binding at 1 µM ([11]; 1000 nM): 0%
Compound: COCCOc1cc2nccc(Oc3ccc(NC(=O)Nc4cc(C(C)(C)C)n[nH]4)c(Cl)c3)c2cc1NC(C)=O [Compound 66, N-[4-{4-[3-(5-tert-butyl-2H-pyrazol-3-yl)-ureido]-3-chloro-phenoxy}-7-(2-methoxy-ethoxy)-quinolin-6-yl]-acetamide]
- T/C (%) ([1]; 2.5 mg/kg i.p once a day): 7.91%
- TGI (%) ([1]; 2.5 mg/kg i.p once a day): 92.09%
- T/C (%) ([1]; 5 mg/kg i.p once a day): 1.07%
- TGI (%) ([1]; 5 mg/kg i.p once a day): 98.93%
- T/C (%) [2]: 1.37%
- TGI (%) [2]: 98.63%
